Values quoted from earlier work as cited in patent US8883846B2, “Synthesis of bicyclic compounds and method for their use as therapeutic agents” (priority 2010, dated 2014).

System: influenza A H1N1 viruses, neuraminidase mutation Q136K
Details: Australian and South East Asian influenza A H1N1 viruses; cited from earlier work

Row | Structure (SMILES) | reduction in susceptibility [fold]
1 | CCC(CC)[C@H](NC(C)=O)[C@@H]1[C@H](O)[C@@H](C(=O)O)C[C@H]1N=C(N)N [peramivir] | 70
2 | CC(=O)N[C@H]1[C@H]([C@H](O)[C@H](O)CO)OC(C(=O)O)=C[C@@H]1N=C(N)N [zanamivir] | 300
